Results from the NIST ThermoML archive (doi:10.1016/j.jct.2005.08.007).
Several values for one entry are separate records, joined by “and”; a condition that tells them apart may be missing. Equal entries are not always repeated. ± gives the expanded uncertainty stated by the source.

Conditions: Crystal, Calculated from knudsen effusion weight loss

| Structure (SMILES) | vapor or sublimation pressure (305.14 K) | vapor or sublimation pressure (307.15 K) | vapor or sublimation pressure (309.16 K) | vapor or sublimation pressure (311.15 K) | vapor or sublimation pressure (313.15 K) | vapor or sublimation pressure (315.13 K) | vapor or sublimation pressure (317.13 K) | vapor or sublimation pressure (319.17 K) | vapor or sublimation pressure (321.14 K) | vapor or sublimation pressure (361.11 K) | vapor or sublimation pressure (363.08 K) | vapor or sublimation pressure (365.26 K) | vapor or sublimation pressure (367.09 K) | vapor or sublimation pressure (369.04 K) | vapor or sublimation pressure (371.26 K) | vapor or sublimation pressure (373.26 K) | vapor or sublimation pressure (375 K) | vapor or sublimation pressure (377.06 K) |
| --- | --- | --- | --- | --- | --- | --- | --- | --- | --- | --- | --- | --- | --- | --- | --- | --- | --- | --- |
| O=[N+]([O-])c1cccc2ccccc12 [1-nitronaphthalene] | 0.0001735 ± 8.7e-06 kPa and 0.0001744 ± 8.7e-06 kPa and 0.0001738 ± 8.7e-06 kPa | 0.0002252 ± 1.1e-05 kPa and 0.0002215 ± 1.1e-05 kPa and 0.000218 ± 1.1e-05 kPa | 0.0002813 ± 1.4e-05 kPa and 0.0002824 ± 1.4e-05 kPa and 0.0002776 ± 1.4e-05 kPa | 0.0003559 ± 1.8e-05 kPa and 0.0003531 ± 1.8e-05 kPa and 0.0003518 ± 1.8e-05 kPa | 0.0004632 ± 2.3e-05 kPa and 0.0004566 ± 2.3e-05 kPa and 0.0004531 ± 2.3e-05 kPa | 0.0005799 ± 2.9e-05 kPa and 0.0005723 ± 2.9e-05 kPa and 0.0005739 ± 2.9e-05 kPa | 0.0006969 ± 3.5e-05 kPa and 0.0007016 ± 3.5e-05 kPa and 0.0006949 ± 3.5e-05 kPa | 0.0008754 ± 4.4e-05 kPa and 0.0008956 ± 4.5e-05 kPa and 0.0008803 ± 4.4e-05 kPa | 0.001127 ± 0.00012 kPa and 0.001114 ± 0.00011 kPa and 0.001108 ± 0.00011 kPa | – | – | – | – | – | – | – | – | – |
| O=[N+]([O-])c1c2ccccc2cc2ccccc12 [9-nitroanthracene] | – | – | – | – | – | – | – | – | – | 0.00019 ± 1e-05 kPa and 0.000196 ± 1e-05 kPa and 0.000195 ± 1e-05 kPa | 0.000236 ± 1.2e-05 kPa and 0.000238 ± 1.2e-05 kPa | 0.000291 ± 1.5e-05 kPa and 0.000294 ± 1.5e-05 kPa | 0.000354 ± 1.8e-05 kPa and 0.000339 ± 1.7e-05 kPa and 0.000342 ± 1.7e-05 kPa | 0.000431 ± 2.2e-05 kPa and 0.000439 ± 2.2e-05 kPa and 0.000427 ± 2.1e-05 kPa | 0.000532 ± 2.7e-05 kPa and 0.000526 ± 2.6e-05 kPa and 0.000534 ± 2.7e-05 kPa | 0.00064 ± 3.2e-05 kPa and 0.000643 ± 3.2e-05 kPa and 0.000647 ± 3.2e-05 kPa | 0.000772 ± 3.9e-05 kPa and 0.000773 ± 3.9e-05 kPa and 0.000761 ± 3.8e-05 kPa | 0.000928 ± 4.6e-05 kPa and 0.000924 ± 4.6e-05 kPa |
